Measurements taken from US20260048047A1, “SMALL-MOLECULE ACTIVATORS OF MYCOBACTERIUM TUBERCULOSIS ADENYLYL CYCLASE” (priority 2022, published 2026).
In brackets after ≈: the same amount, converted by molar mass. Where two headings read alike, the source gives them in different places.

Experiments:
[1] = tested on: Mtb; format: in vivo, BALB/c mice
[2] = tested on: Mtb in macrophages; assay: Inhibition of Mtb replication in macrophages (intramacrophage EC50); format: cell-based, Mycobacterium tuberculosis; conditions: Mycobacterium tuberculosis, Macrophage; read-out: EC50, inhibition of Mtb replication in macrophages
[3] = tested on: Mtb; assay: Chronic Mtb infection in C3HeB/FeJ mice; format: in vivo; conditions: infected and treated in the same manner
[4] = tested on: Mtb; assay: Mtb growth inhibition in standard rich growth media (7H9 OADC) or acetate media; format: cell-based, Mycobacterium tuberculosis; conditions: media containing acetate
[5] = tested on: prpD'::GFP reporter; format: cell-based, Mycobacterium tuberculosis; conditions: V-59 10 μM
[6] = tested on: Mtb cholesterol degradation; assay: Catabolic release of 14CO2 from radiolabelled lipid by Mtb; format: cell-based, Mycobacterium tuberculosis
Description: Because V-59 impairs growth of Mtb in cholesterol media, whether using V-59 to chemically activate Rv1625c inhibits the bacterium's ability to break down cholesterol was tested. When Mtb degrades the A-ring of [4-^14C]-cholesterol, [1-^14C]-pyruvate is released; subsequently, pyruvate dehydrogenase activity mediates the conversion of [1-^14C]-pyruvate into acetyl-CoA and ^14CO2. Therefore, to quantify cholesterol degradation in Mtb, ^14CO2 released following [4-^14C]-cholesterol breakdown by the bacteria was captured.

[7] = tested on: mammalian AC enzymes; conditions: human cell lines, 10 μM
[8] = target: T1, Rv1625c (Mycobacterium tuberculosis, UniProt P9WQ35); format: cell-based
T1 construct: endogenous in cells; host or cells: whole Mycobacterium tuberculosis (WT; CompFull = ΔRv1625c complemented with the entire rv1625c gene)
T1 sequence (P9WQ35 1-443): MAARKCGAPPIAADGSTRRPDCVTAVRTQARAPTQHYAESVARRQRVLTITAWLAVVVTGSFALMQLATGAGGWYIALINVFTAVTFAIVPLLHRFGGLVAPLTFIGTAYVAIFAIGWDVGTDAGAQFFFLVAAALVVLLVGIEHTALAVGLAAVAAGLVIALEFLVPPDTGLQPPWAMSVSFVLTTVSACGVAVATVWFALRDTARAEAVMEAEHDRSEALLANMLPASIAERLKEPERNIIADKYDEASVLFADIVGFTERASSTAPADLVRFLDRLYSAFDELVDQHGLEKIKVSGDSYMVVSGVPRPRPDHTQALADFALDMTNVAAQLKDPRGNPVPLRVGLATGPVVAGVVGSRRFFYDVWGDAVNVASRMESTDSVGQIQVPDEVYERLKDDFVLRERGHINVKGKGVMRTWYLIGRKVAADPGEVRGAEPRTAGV

[9] = Plasma exposure over the cholesterol-media EC50 after oral dosing in mice; format: in vivo; conditions: oral dosing in mice at 20 mg/kg
[10] = tested on: M. tuberculosis; assay: Extracellular activity against M. tuberculosis in cholesterol media (Alamar Blue reduction assay); format: cell-based, Mycobacterium tuberculosis; conditions: Mycobacterium tuberculosis; read-out: EC50, inhibition of Mtb growth in cholesterol media
[11] = Caseum binding
[12] = Extraction ratio, mouse; conditions: Table S2
[13] = Extraction ratio, human; conditions: Table S2
[14] = Solubility at pH 6.8; conditions: pH 6.8, aqueous buffer
[15] = Mouse plasma protein binding
[16] = target: hERG (Homo sapiens, UniProt Q12809); assay: in vitro; format: biochemical; conditions: Table S2
Chain of hERG (Q12809 whole entry): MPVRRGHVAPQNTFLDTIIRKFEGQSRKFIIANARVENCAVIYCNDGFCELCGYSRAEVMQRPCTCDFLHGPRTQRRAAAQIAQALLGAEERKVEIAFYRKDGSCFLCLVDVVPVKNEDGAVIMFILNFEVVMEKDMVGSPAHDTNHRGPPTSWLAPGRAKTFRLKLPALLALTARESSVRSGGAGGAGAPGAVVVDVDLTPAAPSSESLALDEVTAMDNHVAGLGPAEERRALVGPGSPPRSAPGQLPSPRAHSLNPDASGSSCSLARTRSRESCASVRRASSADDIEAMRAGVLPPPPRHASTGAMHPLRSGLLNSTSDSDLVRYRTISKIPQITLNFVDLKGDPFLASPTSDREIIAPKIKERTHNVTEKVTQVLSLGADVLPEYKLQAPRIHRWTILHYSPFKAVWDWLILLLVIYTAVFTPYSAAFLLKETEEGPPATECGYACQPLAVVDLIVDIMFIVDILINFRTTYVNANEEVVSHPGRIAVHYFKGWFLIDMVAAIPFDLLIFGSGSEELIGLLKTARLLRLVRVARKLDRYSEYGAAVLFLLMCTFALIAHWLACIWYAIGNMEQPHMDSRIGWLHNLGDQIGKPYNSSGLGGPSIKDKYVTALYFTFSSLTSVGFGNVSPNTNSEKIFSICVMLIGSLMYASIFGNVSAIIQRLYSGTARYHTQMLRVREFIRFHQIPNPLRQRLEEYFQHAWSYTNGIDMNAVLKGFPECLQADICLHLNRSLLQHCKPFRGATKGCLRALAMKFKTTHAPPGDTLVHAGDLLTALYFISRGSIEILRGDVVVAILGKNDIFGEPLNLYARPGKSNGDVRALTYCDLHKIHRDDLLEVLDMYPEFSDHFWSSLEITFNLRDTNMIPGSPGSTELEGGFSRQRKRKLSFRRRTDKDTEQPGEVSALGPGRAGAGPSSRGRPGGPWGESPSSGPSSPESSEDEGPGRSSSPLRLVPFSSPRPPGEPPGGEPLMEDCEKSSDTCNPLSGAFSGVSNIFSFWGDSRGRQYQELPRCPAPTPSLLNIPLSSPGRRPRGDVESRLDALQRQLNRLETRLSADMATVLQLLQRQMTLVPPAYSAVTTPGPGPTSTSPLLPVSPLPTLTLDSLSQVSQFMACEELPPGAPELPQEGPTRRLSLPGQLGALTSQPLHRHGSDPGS

## Cc1nonc1CC(=O)N1CCC(n2nnc(-c3ccc(F)cc3)n2)CC1 [Compound V-59, 1-(4-(5-(4-fluorophenyl)-2H-tetrazol-2-yl)piperidin-1-yl)-2-(4-methyl-1,2,5-oxadiazol-3-yl)ethan-1-one]
[1]; BALB/c, 50 mg/kg oral once-daily, weeks 4-8
  Reduction of extent of lung inflammation: ~50%
[1]; mouse, in vivo, po, 50 mg/kg
  Reduction in lung CFUs: ~0.4 log10
[2]
  EC50: 300 nM
[3]
  Reduction in lung CFUs: ~0.5 log10
[4]
  Inhibition of Mtb growth in acetate media or standard rich growth media: not
[5]; CompFull strain
  Decrease of prpD'::GFP signal in CompFull: ~90%
[5]; WT
  Decrease of prpD'::GFP signal in WT: ~50%
[6]; WT Mtb
  Decrease of 14CO2 release from [4-14C]-cholesterol: ~89%
[6]; fatty acid breakdown
  Effect on 14CO2 release from [U-14C]-palmitate: no measurable effect
[7]
  Activation of ACs in mammalian cells: No evidence
[8]
  cAMP induction in WT Mtb: ~70 fold
[8]; CompFull strain
  cAMP induction in CompFull Mtb: ~140 fold
[9]
  Plasma exposure above the EC50 (cholesterol media): approximately 24 hours
[10]
  EC50: 700 nM

## Cn1ncnc1CC(=O)N1[C@@H]2CC(c3nc(-c4ccc(Cl)c(Cl)c4)no3)C[C@H]1C2 (some centres unmarked) [drawing 4]
[11]
  fraction unbound: < 0.0001
[12]
  ER mouse/human: mouse: <0.3/<0.3
[13]
  ER mouse/human: human: <0.3/<0.3
[14]
  solubility: 94 µM (≈ 40.7 µg/mL)
[15]
  fraction unbound: 0.022
[16]
  IC50: 11800 nM
